Data reported in patent publication US8343959B2, “N-phenyl-(piperazinyl or homopiperazinyl)-benzenesulfonamide or benzenesulfonyl-phenyl-(piperazine or homopiperazine) compounds suitable for treating disorders that respond to modulation of the serotonin 5-HT6 receptor” (Abbott GmbH & Co. KG, priority 2009, dated 2013).
Structures can show the parent of a compound that is named as a salt.

Each compound was assayed against T1, h-5-HT6 receptor (Homo sapiens, UniProt P50406) (assay: 5-HT6 receptor binding assay (displacement of [3H]-LSD)). Conditions: not given.
T1 construct: expressed in transfected cells
T1 sequence (P50406 whole entry): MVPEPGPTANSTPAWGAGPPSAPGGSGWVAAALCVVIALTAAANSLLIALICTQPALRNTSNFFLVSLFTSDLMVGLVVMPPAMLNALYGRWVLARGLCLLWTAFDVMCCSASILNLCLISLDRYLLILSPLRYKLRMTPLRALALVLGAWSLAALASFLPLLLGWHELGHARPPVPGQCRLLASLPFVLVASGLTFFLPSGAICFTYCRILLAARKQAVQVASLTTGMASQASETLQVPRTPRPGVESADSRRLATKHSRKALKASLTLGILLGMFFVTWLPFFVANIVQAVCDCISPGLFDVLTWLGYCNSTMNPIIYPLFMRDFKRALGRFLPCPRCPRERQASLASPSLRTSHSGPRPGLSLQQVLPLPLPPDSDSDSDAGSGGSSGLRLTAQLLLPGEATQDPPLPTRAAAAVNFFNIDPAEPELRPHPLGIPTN

| Structure (SMILES) | Ki [nM] |
| --- | --- |
| Cc1ccc(S(=O)(=O)Nc2ccccc2OC(F)F)cc1N1CCNCC1 [Example 17, N-(2-Difluoromethoxy-phenyl)-4-methyl-3-piperazin-1-yl-benzenesulfonamide hydrochloride] | < 10 |

Same assay, conditions: membranes of HEK293 cells expressing h-5-HT6 receptor, 1 nM [3H]-LSD; read-out: Ki (5HT6)

| Ki [nM] | Structure (SMILES) |
| --- | --- |
| < 10 | COc1ccc(S(=O)(=O)Nc2cc(OC(F)F)ccc2C)cc1N1CCNCC1 [Example 59, N-(5-Difluoromethoxy-2-methyl-phenyl)-4-methoxy-3-piperazin-1-yl-benzenesulfonamide hydrochloride] |
| < 10 | Cc1ccc(S(=O)(=O)Nc2ccccc2OC(F)F)cc1N1CCCN(C)CC1 [Example 100, N-(2-Difluoromethoxy-phenyl)-4-methyl-3-(4-methyl-[1,4]diazepan-1-yl)-benzenesulfonamide hydrochloride] |
| < 10 | COc1ccc(S(=O)(=O)Nc2ccc(OC(F)F)c(OC(F)F)c2)cc1N1CCN(C)CC1 [Example 51, N-(3,4-Bis-difluoromethoxy-phenyl)-4-methoxy-3-(4-methyl-piperazin-1-yl)-benzenesulfonamide hydrochloride] |
| < 50 | CCN(c1ccccc1OC(F)F)S(=O)(=O)c1ccc(OC)c(N2CCNCC2)c1 [Example 31, N-(2-Difluoromethoxy-phenyl)-N-ethyl-4-methoxy-3-piperazin-1-yl-benzenesulfonamide hydrochloride] |
| < 10 | COc1ccc(S(=O)(=O)Nc2cc(Cl)ccc2OC(F)F)cc1N1CCN(C)CC1 [Example 53, N-(5-Chloro-2-difluoromethoxy-phenyl)-4-methoxy-3-(4-methyl-piperazin-1-yl)-benzenesulfonamide hydrochloride] |
| < 10 | COc1ccc(S(=O)(=O)Nc2ccc(F)cc2OC(F)F)cc1N1CCNCC1 [Example 82, N-(2-Difluoromethoxy-4-fluoro-phenyl)-4-methoxy-3-piperazin-1-yl-benzenesulfonamide hydrochloride] |
| < 10 | CCOc1ccc(S(=O)(=O)Nc2ccc(C)cc2OC(F)F)cc1N1CCNCC1 [Example 106, N-(2-Difluoromethoxy-4-methylphenyl)-4-ethoxy-3-piperazin-1-yl benzenesulfonamide] |
| < 10 | COc1ccc(S(=O)(=O)Nc2ccc3c(c2)OC(F)(F)O3)cc1N1CCN(C)CC1 [Example 66, N-(2,2-Difluoro-benzo[1,3]dioxol-5-yl)-4-methoxy-3-(4-methyl-piperazin-1-yl)-benzenesulfonamide hydrochloride] |
| < 10 | O=S(=O)(Nc1ccccc1OC(F)F)c1cccc(N2CCNCC2)c1 [Example 41, N-(2-Difluoromethoxy-phenyl)-3-piperazin-1-yl-benzenesulfonamide hydrochloride] |
| < 10 | COc1ccc(NS(=O)(=O)c2ccc(OC)c(N3CCN(C)CC3)c2)cc1OC(F)F [Example 38, N-(3-Difluoromethoxy-4-methoxy-phenyl)-4-methoxy-3-(4-methyl-piperazin-1-yl)-benzenesulfonamide hydrochloride] |
| < 10 | COc1ccc(S(=O)(=O)c2cccc(OC(F)F)c2)cc1N1CCN(C)CC1 [Example 48, 1-[5-(3-Difluoromethoxy-benzenesulfonyl)-2-methoxy-phenyl]-4-methyl-piperazine hydrochloride] |
| < 500 | Cc1ccc(S(=O)(=O)N(CC2CC2)c2ccccc2OC(F)F)cc1N1CCNCC1 [Example 9, N-Cyclopropylmethyl-N-(2-difluoromethoxy-phenyl)-4-methyl-3-piperazin-1-yl-benzenesulfonamide hydrochloride] |
| < 10 | COc1ccc(S(=O)(=O)Nc2ccc(OC(F)F)cc2)cc1N1CCN(C)CC1 [Example 95, N-(4-Difluoromethoxy-phenyl)-4-methoxy-3-(4-methyl-piperazin-1-yl)-benzenesulfonamide hydrochloride] |
| < 50 | Cc1ccc(NS(=O)(=O)c2ccc(C)c(N3CCCNCC3)c2)cc1OC(F)F [Example 98, 3-[1,4]Diazepan-1-yl-N-(3-difluoromethoxy-4-methyl-phenyl)-4-methyl-benzenesulfonamide hydrochloride] |
| < 10 | COc1ccc(S(=O)(=O)Nc2ccccc2OC(F)F)cc1N1CCN(C)CC1 [Example 37, N-(2-Difluoromethoxy-phenyl)-4-methoxy-3-(4-methyl-piperazin-1-yl)-benzenesulfonamide hydrochloride] |
| < 10 | COc1ccc(S(=O)(=O)Nc2cc(C)ccc2OC(F)F)cc1N1CCN(C)CC1 [Example 67, N-(2-Difluoromethoxy-5-methyl-phenyl)-4-methoxy-3-(4-methyl-piperazin-1-yl)-benzenesulfonamide hydrochloride] |
| < 50 | CCCN(c1cccc(OC(F)F)c1)S(=O)(=O)c1ccc(C)c(N2CCNCC2)c1 [Example 12, N-(3-Difluoromethoxy-phenyl)-4-methyl-3-piperazin-1-yl-N-propyl-benzenesulfonamide hydrochloride] |
| < 50 | COc1ccc(S(=O)(=O)N(C)c2ccccc2OC(F)F)cc1N1CCNCC1 [Example 27, N-(2-Difluoromethoxy-phenyl)-4-methoxy-N-methyl-3-piperazin-1-yl-benzenesulfonamide hydrochloride] |
| < 500 | CN(c1ccccc1OC(F)F)S(=O)(=O)c1cccc(N2CCNCC2)c1 [Example 43, N-(2-Difluoromethoxy-phenyl)-N-methyl-3-piperazin-1-yl-benzenesulfonamide hydrochloride] |
| < 50 | COc1ccc(N(C)S(=O)(=O)c2ccc(OC)c(N3CCNCC3)c2)cc1OC(F)F [Example 28, N-(3-Difluoromethoxy-4-methoxy-phenyl)-4-methoxy-N-methyl-3-piperazin-1-yl-benzenesulfonamide hydrochloride] |
